Values quoted from earlier work, collected in US20230416754A1, “SINA MOLECULES, METHODS OF PRODUCTION AND USES THEREOF” (PHYZAT BIOPHARMACEUTICALS, LDA, priority 2020, published 2023).
Where two headings read alike, the source gives them in different places.

System: mice

What does the source list for `CC(C)(C)NC[C@H](O)COc1nsnc1N1CCOCC1` [Timolol, timolol]?
IOP (reserpine-treated animals): did not significantly affect IOP; IOP (saline control treated mice): significantly reduced IOP
